Results from PubChem BioAssay (NCI).
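Five compound concentrations were applied to cells in 96-well plates for 48 hours; endpoints were derived by simple linear interpolation of the resulting dose-response curve. At the GI50, growth is halved. At the TGI there is no net growth.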

Columns and labels:
Test in all cases: NCI-60 cell line screen, 48 h
[1] = system: HL-60(TB) leukemia
[2] = system: UACC-257 melanoma
[3] = system: SR leukemia
[4] = system: SN12C renal
[5] = system: SK-OV-3 ovarian
[6] = system: SW-620 colon
[7] = system: SF-295 CNS
[8] = system: MOLT-4 leukemia
[9] = system: 786-0 renal
[10] = system: SK-MEL-28 melanoma
[11] = system: M14 melanoma
[12] = system: CAKI-1 renal
[13] = system: KM12 colon
[14] = system: UACC-62 melanoma
[15] = system: SF-539 CNS
[16] = system: OVCAR-4 ovarian
[17] = system: OVCAR-8 ovarian
[18] = system: SK-MEL-2 melanoma
[19] = system: COLO 205 colon
[20] = system: HOP-92 NSCLC
[21] = system: MALME-3M melanoma
[22] = system: CCRF-CEM leukemia
[23] = system: HOP-62 NSCLC
[24] = system: SF-268 CNS
[25] = system: UO-31 renal
[26] = system: NCI-H23 lung
[27] = system: EKVX NSCLC
[28] = system: RPMI-8226 leukemia
[29] = system: A498 renal
[30] = system: DU-145 prostate
[31] = system: SNB-75 CNS
[32] = system: U251 CNS
[33] = system: HCT-116 colon
[34] = system: NCI-H460 lung
[35] = system: NCI-H226 lung
[36] = system: OVCAR-5 ovarian
[37] = system: MDA-MB-435
[38] = system: TK-10 renal
[39] = system: MCF7 breast
[40] = system: LOX IMVI melanoma
[41] = system: SNB-19 CNS
[42] = system: RXF 393 renal
[43] = system: SK-MEL-5 melanoma
[44] = system: K-562 leukemia
[45] = system: MDA-MB-231 breast
[46] = system: HS 578T breast
[47] = system: IGROV1 ovarian
[48] = system: A549 NSCLC
[49] = system: NCI/ADR-RES ovarian
[50] = system: T-47D breast
[51] = system: ACHN renal
[52] = system: HT29 colon
[53] = system: OVCAR-3 ovarian
[54] = system: HCT-15 colon
[55] = system: BT-549 breast
[56] = system: PC-3 prostate

Q: `CCN(CC)c1ccc(N=O)cc1` was tested. Which GI50 [1] did it give?
A: 2.85 µM

Q: And the TGI [1]?
A: 13.6 µM

Q: And the GI50 [2]?
A: 1.82 µM

Q: And the TGI [2]?
A: 4.15 µM

Q: And the GI50 [3]?
A: 3.74 µM

Q: What about the TGI [3] of the same compound?
A: 46.2 µM

Q: What about the GI50 [4] of the same compound?
A: 4.24 µM

Q: And the TGI [4]?
A: 17.2 µM

Q: And the GI50 [5]?
A: 12.4 µM

Q: And the TGI [5]?
A: 29.3 µM

Q: And the GI50 [6]?
A: 1.71 µM

Q: And the TGI [6]?
A: 5.53 µM

Q: And the GI50 [7]?
A: 4.87 µM

Q: And the TGI [7]?
A: 20.5 µM

Q: And the GI50 [8]?
A: 3.34 µM

Q: And the TGI [8]?
A: 30.1 µM

Q: What about the GI50 [9] of the same compound?
A: 7.46 µM

Q: What about the TGI [9] of the same compound?
A: 23.6 µM

Q: What about the GI50 [10] of the same compound?
A: 10.7 µM

Q: And the TGI [10]?
A: 23 µM

Q: And the GI50 [11]?
A: 3.47 µM

Q: What about the TGI [11] of the same compound?
A: 14.4 µM

Q: And the GI50 [12]?
A: 1.29 µM

Q: What about the TGI [12] of the same compound?
A: 3.83 µM

Q: And the GI50 [13]?
A: 3.39 µM

Q: And the TGI [13]?
A: 13.1 µM

Q: What about the GI50 [14] of the same compound?
A: 6.66 µM

Q: And the TGI [14]?
A: 23.5 µM

Q: And the GI50 [15]?
A: 2.96 µM

Q: And the TGI [15]?
A: 10.1 µM

Q: And the GI50 [16]?
A: 3.26 µM

Q: What about the TGI [16] of the same compound?
A: 13.5 µM

Q: What about the GI50 [17] of the same compound?
A: 3.14 µM

Q: And the TGI [17]?
A: 12.3 µM

Q: And the GI50 [18]?
A: 8.39 µM

Q: And the TGI [18]?
A: 22 µM

Q: And the GI50 [19]?
A: 1.98 µM

Q: What about the TGI [19] of the same compound?
A: 5.46 µM

Q: And the GI50 [20]?
A: 2.18 µM

Q: And the TGI [20]?
A: 7.73 µM

Q: What about the GI50 [21] of the same compound?
A: 1.59 µM

Q: What about the TGI [21] of the same compound?
A: 4.46 µM

Q: And the GI50 [22]?
A: 0.937 µM

Q: And the TGI [22]?
A: 13 µM

Q: And the GI50 [23]?
A: 2.78 µM

Q: And the TGI [23]?
A: 11.8 µM

Q: What about the GI50 [24] of the same compound?
A: 5.53 µM

Q: What about the TGI [24] of the same compound?
A: 20.9 µM

Q: What about the GI50 [25] of the same compound?
A: 1.21 µM

Q: And the TGI [25]?
A: 3.81 µM

Q: And the GI50 [26]?
A: 1.95 µM

Q: And the TGI [26]?
A: 5.32 µM

Q: What about the GI50 [27] of the same compound?
A: 10.2 µM

Q: What about the TGI [27] of the same compound?
A: 26.8 µM

Q: And the GI50 [28]?
A: 2.09 µM

Q: And the TGI [28]?
A: 6.33 µM

Q: And the GI50 [29]?
A: 13.6 µM

Q: What about the TGI [29] of the same compound?
A: 38.5 µM

Q: And the GI50 [30]?
A: 6.43 µM

Q: What about the TGI [30] of the same compound?
A: 19.9 µM

Q: And the GI50 [31]?
A: 3.47 µM

Q: And the TGI [31]?
A: 16.9 µM

Q: What about the GI50 [32] of the same compound?
A: 1.14 µM

Q: And the TGI [32]?
A: 2.73 µM

Q: And the GI50 [33]?
A: 1.82 µM

Q: And the TGI [33]?
A: 4.71 µM

Q: And the GI50 [34]?
A: 5.12 µM

Q: And the TGI [34]?
A: 34.2 µM

Q: What about the GI50 [35] of the same compound?
A: 13.6 µM

Q: What about the TGI [35] of the same compound?
A: 38.4 µM

Q: What about the GI50 [36] of the same compound?
A: 3.51 µM

Q: And the TGI [36]?
A: 14.3 µM

Q: And the GI50 [37]?
A: 2.72 µM

Q: And the TGI [37]?
A: 11.9 µM

Q: What about the GI50 [38] of the same compound?
A: 2.79 µM

Q: And the TGI [38]?
A: 10.8 µM

Q: What about the GI50 [39] of the same compound?
A: 2.76 µM

Q: What about the TGI [39] of the same compound?
A: 11.8 µM

Q: What about the GI50 [40] of the same compound?
A: 1.67 µM

Q: And the TGI [40]?
A: 3.53 µM

Q: And the GI50 [41]?
A: 12.8 µM

Q: And the TGI [41]?
A: 29.9 µM

Q: And the GI50 [42]?
A: 2.46 µM

Q: What about the TGI [42] of the same compound?
A: 7.45 µM

Q: And the GI50 [43]?
A: 2.47 µM

Q: And the TGI [43]?
A: 7.38 µM

Q: And the GI50 [44]?
A: 2.23 µM

Q: What about the TGI [44] of the same compound?
A: 15.9 µM

Q: And the GI50 [45]?
A: 5.29 µM

Q: What about the TGI [45] of the same compound?
A: 20.9 µM

Q: And the GI50 [46]?
A: 10.2 µM

Q: What about the TGI [46] of the same compound?
A: > 100 µM

Q: What about the GI50 [47] of the same compound?
A: 2.05 µM

Q: What about the TGI [47] of the same compound?
A: 6.41 µM

Q: What about the GI50 [48] of the same compound?
A: 2.07 µM

Q: What about the TGI [48] of the same compound?
A: 5.56 µM

Q: What about the GI50 [49] of the same compound?
A: 2.33 µM

Q: And the TGI [49]?
A: 7 µM

Q: What about the GI50 [50] of the same compound?
A: 2.89 µM

Q: And the TGI [50]?
A: 16.7 µM

Q: What about the GI50 [51] of the same compound?
A: 2.61 µM

Q: And the TGI [51]?
A: 11.1 µM

Q: What about the GI50 [52] of the same compound?
A: 1.27 µM

Q: And the TGI [52]?
A: 4.3 µM

Q: What about the GI50 [53] of the same compound?
A: 1.97 µM

Q: What about the TGI [53] of the same compound?
A: 4.61 µM

Q: What about the GI50 [54] of the same compound?
A: 2.26 µM

Q: What about the TGI [54] of the same compound?
A: 12.8 µM

Q: And the GI50 [55]?
A: 16.6 µM

Q: What about the TGI [55] of the same compound?
A: 30.5 µM

Q: And the GI50 [56]?
A: 3.14 µM

Q: What about the TGI [56] of the same compound?
A: 12.1 µM
